Test: xn = mol fraction of the nth substance listed
Conditions: 100 kPa

OCc1ccco1 + CC(=O)[O-].CC[n+]1ccn(C)c1
speed of sound [m/s]
Conditions	298.15 K	303.15 K	308.15 K	313.15 K	318.15 K
x2 = 0	1447	1431	1413	1394	1375
x2 = 0.0572	1487	1471	1452	1430	–
x2 = 0.1058	1522	1506	1487	1465	1433
x2 = 0.1534	1548	1532	–	1490	–
x2 = 0.2087	1573	1557	1540	1519	–
x2 = 0.3068	–	–	1577	–	1534
x2 = 0.408	1637	1623	1609	1595	1578
x2 = 0.5063	–	–	1633	1620	1606
x2 = 0.5513	1670	1656	1643	1629	–
x2 = 0.6031	1680	1666	–	–	1627
x2 = 0.7053	1696	1683	–	1657	–
x2 = 0.8045	1711	–	1685	1673	1660
x2 = 0.8441	1716	1704	1691	1678	1666
x2 = 0.902	1723	–	1699	1686	1674

CC(=O)[O-].CC[n+]1ccn(C)c1 + OCc1ccco1
x1 = 1
Conditions	speed of sound [m/s]
298.15 K	1735
303.15 K	1722
308.15 K	1710
313.15 K	1698
318.15 K	1686

Reference: a compilation of properties of binary mixtures (doi:10.1016/j.molliq.2017.06.029)
